# From patent US20240383870A1, “HETEROCYCLIC ALDEHYDE TRAPPING COMPOUNDS AND USES THEREOF” (Aldeyra Therapeutics, Inc., priority 2021, published 2024)
# Tests used:
# [1] = tested on: MIP2(CXCL2); assay: Acute LPS-induced sepsis in C57BL/6 mice: MIP2(CXCL2) cytokine detection assay; format: in vivo; conditions: 200 mpk PO; LPS-challenged mice, plasma at 6.5 h; unpaired t-test vs vehicle
# Text: FIG. 27 is a graph showing the results of a MIP2(CXCL2) cytokine detection assay in samples collected from mouse subjects after administration of compounds of the present disclosure.
# (§1) The primary objective of this study was to collect plasma samples of lipopolysaccharide (LPS) challenged C57BL/6 mice after dose of test compounds to provide a cytokine profile as impacted by prophylactic treatments. This study models acute sepsis, which is a systemic inflammatory syndrome initiated by Gram-negative and Gram-positive bacteria and fungi which infect the lungs, abdomen, bloodstream, and renal or genitourinary tracts. Sepsis patients ultimately die of multiorgan failure which is caused by extensive tissue hypo-oxygenation due to ongoing microvascular leakage, disseminated intravascular coagulation, compromised energy production, and metabolic alterations. Sepsis is characterized by an early systemic inflammatory response phase featuring symptoms, such as tachycardia, fever, hyperventilation, and activation of the complement and coagulation cascades. However, it is now appreciated that a compensatory anti-inflammatory response phase follows, characterized by neuroendocrine-mediated immunosuppression. Since these processes are the result of interaction between cells of inflammation and organs, investigation of the treatment of this syndrome requires the use of intact animal models. The use of ten mice per group allows useful statistical modelling of the results.
# (§2) For the data shown in Table 2A, 103 mice (female, 18-22 gram, C57BL/6) were purchased from ENVIGO. The mice were housed in 20 cages of 5 mice per cage with 1 cage of 3 mice as extra. The cages had filter tops and autoclaved bedding, and the animals were placed in quarantine with daily inspection. The treatment groups are detailed in Table 2A below. 10 mice were included in each group. […] MC=methyl cellulose.
# (§3) For the data shown in Table 2B, 185 mice (female, 18-22 gram, C57BL/6) were purchased from ENVIGO. The mice were housed in 37 cages of 5 mice per cage. The cages had filter tops and autoclaved bedding, and the animals were placed in quarantine with daily inspection. The treatment groups are detailed in Table 2B below. 10 mice were included in each group. The mice were dosed by oral gavage (P0) at 10 ml/kg as per the table below. MC=methyl cellulose.
# (§4) At T=0 h, the mice were dosed with one of the test compounds as described in the above table.
# (§5) At T=0.5 h, the mice were injected IP with 1.5 mg/kg […] (Sigma).
# (§6) At T=6.5 h, all mice were anesthetized and exsanguinated into pre-chilled EDTA-treated tubes. […]
# (§7) A 32-plex cytokine panel was obtained from Eve Technologies. Each cytokine was assessed based against a 7 point curve range in duplicate. […]
# [2] = tested on: leukemia inhibitory factor (LIF); assay: Acute LPS-induced sepsis in C57BL/6 mice: leukemia inhibitory factor (LIF) cytokine detection assay; format: in vivo; conditions: 200 mpk PO; LPS-challenged mice, plasma at 6.5 h; unpaired t-test vs vehicle
# Text: FIG. 21 is a graph showing the results of a leukemia inhibitory factor (LIF) cytokine detection assay in samples collected from mouse subjects after administration of compounds of the present disclosure. LIF is an interleukin 6 class cytokine that affects cell growth by inhibiting differentiation.
# as §1
# (§8) For the data shown in Table 2A, 103 mice (female, 18-22 gram, C57BL/6) were purchased from ENVIGO. The mice were housed in 20 cages of 5 mice per cage with 1 cage of 3 mice as extra. The cages had filter tops and autoclaved bedding, and the animals were placed in quarantine with daily inspection. The treatment groups are detailed in Table 2A below. 10 mice were included in each group. The mice were dosed by oral gavage (PO) at 10 ml/kg as per the table below. MC=methyl cellulose.
# as §3, §4, §5
# (§9) At T=6.5 h, all mice were anesthetized and exsanguinated into pre-chilled EDTA-treated tubes. The blood was processed to plasma which was stored in labeled 0.5 polypropylene snap-cap tubes (0.5 mL Eppendorf Safe-Lock Tubes (Fisher Scientific) at −80° C.
# (§10) Preparation of vehicle: 1.0 gram of methyl cellulose (Sigma) was dissolved in 200 mL of water (USP purified) to make a solution of 0.5% methyl cellulose in water. Preparation of LPS solution: 6 mg of LPS (from Escherichia Coli 055:B5, Cat #L2880, Sigma Lot #057m4013) was dissolved in 20 ml of saline to give a LPS solution of 0.3 mg/ml. All mice were injected with 5 ml/kg (1.5 mg/kg) at the scheduled time by intraperitoneal injection.
# as §7
# [3] = tested on: IL-12(p70); assay: Acute LPS-induced sepsis in C57BL/6 mice: IL-12(p70) cytokine detection assay; format: in vivo; conditions: 200 mpk PO; LPS-challenged mice, plasma at 6.5 h; unpaired t-test vs vehicle
# Text: FIG. 16 is a graph showing the results of an IL-12(p70) cytokine detection assay in samples collected from mouse subjects after administration of compounds of the present disclosure.
# as §1, §2, §3, §4, §5, §9, §10
# A 32-plex cytokine panel was obtained from Eve Technologies. Each cytokine was assessed based against a 7 point curve range in duplicate. The average of the two replicate analyses was used for statistics. Unpaired t-tests were performed using Excel™ contrasting vehicle against each treatment group. One star indicates P<0.05. […]
# [4] = tested on: IL-2; assay: Acute LPS-induced sepsis in C57BL/6 mice: IL-2 cytokine detection assay; format: in vivo; conditions: 200 mpk PO; LPS-challenged mice, plasma at 6.5 h; unpaired t-test vs vehicle
# Text: FIG. 7 is a graph showing the results of an IL-2 cytokine detection assay in samples collected from mouse subjects after administration of compounds of the present disclosure.
# as §1, with “Since these processes are the result of interaction between cells of inflammation and organs, investigation of the treatment of this syndrome requires the use of intact animal models. The use of ten mice per group allows useful statistical modelling of the results.” left out
# as §7
# [5] = tested on: IL-9; assay: Acute LPS-induced sepsis in C57BL/6 mice: IL-9 cytokine detection assay; format: in vivo; conditions: 200 mpk PO; LPS-challenged mice, plasma at 6.5 h; unpaired t-test vs vehicle
# Text: FIG. 13 is a graph showing the results of an IL-9 cytokine detection assay in samples collected from mouse subjects after administration of compounds of the present disclosure.
# as §1
# For the data shown in Table 2A, 103 mice (female, 18-22 gram, C57BL/6) were purchased from ENVIGO. The mice were housed in 20 cages of 5 mice per cage with 1 cage of 3 mice as extra. The cages had filter tops and autoclaved bedding, and the animals were placed in quarantine with daily inspection. The treatment groups are detailed in Table 2A below. 10 mice were included in each group. The mice were dosed by oral gavage (PO) at 10 ml/kg as per the table below. MC=methyl cellulose. […]
# as §7
# [6] = tested on: KC; assay: Acute LPS-induced sepsis in C57BL/6 mice: KC cytokine detection assay; format: in vivo; conditions: 200 mpk PO; LPS-challenged mice, plasma at 6.5 h; unpaired t-test vs vehicle
# Text: FIG. 20 is a graph showing the results of a KC cytokine detection assay in samples collected from mouse subjects after administration of compounds of the present disclosure.
# as §1, §8, §3, §4, §5, §9, §10
# A 32-plex cytokine panel was obtained from Eve Technologies. Each cytokine was assessed based against a 7 point curve range in duplicate. The average of the two replicate analyses was used for statistics. Unpaired t-tests were performed using Excel™ contrasting vehicle against each treatment group. One star indicates P<0.05. Two stars indicates P<0.01. Three stars indicates P<0.001. Four stars indicates P<0.0001. Most, but not all, statistically significant results are indicated with star(s).
# [7] = tested on: IL-6; assay: Acute LPS-induced sepsis in C57BL/6 mice: IL-6 cytokine detection assay; format: in vivo; conditions: 200 mpk PO; LPS-challenged mice, plasma at 6.5 h; unpaired t-test vs vehicle
# Text: FIG. 11 is a graph showing the results of an IL-6 cytokine detection assay in samples collected from mouse subjects after administration of compounds of the present disclosure.
# as §1, §8, §3, §4, §5, §6, §7
# [8] = 4-HNE trapping experiment (aldehyde adduct formation, Example 6); conditions: 4-HNE 1.5 eq; 20% Captisol in phosphate buffer pH 7.2; 24-h time period; LCMS
# Procedure: Each of compounds ADX-102, I-32, I-8, I-29, and I-31 ([…]) was tested for reactivity using 4-hydroxynonenal (4-HNE) (1.5 eq) as a model aldehyde. ADX-102 is also known as Reproxalap. Each compound was dissolved in a 20% solution of Captisol in phosphate buffer (1 mL, pH=7.2). Then, 4-HNE in ethanol (10 mg/mL solution) was added to the solution. The ensuing reaction was monitored by LCMS analysis. The relative ratio of experimental compound/4-HNE adduct to final composition was plotted against time to provide an indication of reaction rate and level of reaction completeness.
compound,measurement,setting,value
CC(C)(O)c1cc2c(cc1N)OCO2 [Compound I-29],MIP-2: significant cytokine change vs. vehicle,[1],* (One star indicates P<0.05)
same,LIF: significant cytokine change vs. vehicle,[2],**** (Four stars indicates P<0.0001)
same,IL-12 (p70): significant cytokine change vs. vehicle,[3],**** (Four stars indicates P<0.0001)
same,IL-2: significant cytokine change vs. vehicle,[4],** (Two stars indicates P<0.01)
same,IL-9: significant cytokine change vs. vehicle,[5],*** (Three stars indicates P<0.001)
same,KC: significant cytokine change vs. vehicle,[6],* (One star indicates P<0.05)
same,IL-6: significant cytokine change vs. vehicle,[7],** (Two stars indicates P<0.01)
same,4-HNE binding (rate of formation of aldehyde adduct),[8],the best binding
